Experiments:
MC38 cells = experiment: In vivo tumor challenge with ex vivo MS-023-treated MC38 cells; design: species or system mouse; settings: MC38 cells treated 5 μM for 96 hours
Experimental: Unless otherwise specified, cell lines were treated with splicing inhibitors at the indicated concentrations for 96 hours in vitro, harvested and washed three times with PBS in excess to remove all drug, and then used for downstream analyses and/or subsequent studies, including phenotyping, RNA-seq analyses, continued growth in vitro, or tumor challenge in vivo into syngeneic animals.
Unless otherwise specified, syngeneic B6 or Balb/c mice were engrafted subcutaneously on bilateral flanks with MC38, B16-F10, CT26 or LLC tumor cells at the following doses: MC38 10^6 cells, B16-F10 0.5×10^6 cells, CT26 0.25×10^6 cells, LLC 0.25×10^6 cells. Tumors were measured serially twice or three times weekly and tumor volumes were estimated by length×width×height. Animals were monitored daily for survival and weighed twice weekly. Experimental endpoints mandating euthanasia were approved by the IACUC and included: animal lethargy, severe kyphosis or evidence of pain, difficulty with ambulation or feeding, tumor ulceration>1 cm or bleeding tumor, evidence of infected tumor, tumor volumes exceeding 2.5 cm^3, or animal total body weight loss>10% from baseline.

[1] = mouse, in vivo
Experimental: Animals were subcutaneously engrafted on bilateral flanks with tumor cells (MC38 1×10^6, B16-F10 0.5×10^6 and LLC 0.25×10^6 cells unless otherwise specified) on day 0, and treated continuously with splicing inhibitors (MS-023 50 mg/kg i.p., indisulam 25 mg/kg i.v. or vehicle) daily for 5 of 7 weekly days starting from day +3 of tumor challenge. […] Mice were weighed weekly for weight-based drug dosing.

B16-F10 cells = experiment: Engraftment of indisulam-treated B16-F10 cells into hosts with immune perturbations or with B2m knockout; assay type: in vivo, mouse
From the text: B16-F10, CT26.WT (CT26), and LLC cells were obtained from ATCC (Cat. CRL-6475, CRL-2638, and CRL-1642 respectively). MB49 cells were obtained from MilliporeSigma (Cat. SCC148, Burlington, Mass.); MC38 cells were obtained from Kerafast (Cat. ENH204-FP, Boston, Mass.). B16-F10 and MC38 cells expressing chicken ovalbumin (B16ova and MC38ova) were a kind gift of Jeff Ravetch (Rockefeller University, New York, N.Y.). To generate β2 microglobulin deficient cell lines for in vitro experiments, four candidate sgRNAs for mouse β2microglobulin (#1 […] (SEQ ID NO:2), #2 […] (SEQ ID NO:3), #3 […] (SEQ ID NO:4), #4 […]) (SEQ ID NO:5), or nontargeting control ([…]) (SEQ ID NO:6) were cloned into pSpCas9(BB)-2A-Puro (PX459) as previously described (Ran, F. A., et al. (2013). Genome engineering using the CRISPR-Cas9 system. Nat Protoc 8, 2281-2308, incorporated herein by reference in its entirety) and used to engineer deficient MC38, B16-F10, and CT26 cell lines via transfection using XtremeGene 9 reagent as per manufacturer's instructions (MilliporeSigma Cat. 6365809001) followed by puromycin selection at 10 μg/mL for three days. Polyclonal cell populations were obtained by flow sorting for H-2K^b/D^b and P2 microglobulin double-negative cells, and gene knockout further confirmed by stimulating a culture of these sorted cells for 48 hours with 10 U/mL mouse IFNγ and analyzing for the same markers. For in vivo experiments, lentiCas9-Blast was used to generate Cas9-expressing B16-F10 cells. […]
Unless otherwise specified, syngeneic B6 or Balb/c mice were engrafted subcutaneously on bilateral flanks with MC38, B16-F10, CT26 or LLC tumor cells at the following doses: MC38 10^6 cells, B16-F10 0.5×10^6 cells, CT26 0.25×10^6 cells, LLC 0.25×10^6 cells. Tumors were measured serially twice or three times weekly and tumor volumes were estimated by length×width×height. Animals were monitored daily for survival and weighed twice weekly. […]

CD8^+ T cells = experiment: IFNγ ELISpot with indisulam-treated B16-F10 cells as antigen-presenting cells; assay type: cell-based, mouse; settings: B16-F10 treated with indisulam 1 μM for 96 hours
Experimental: Such cells were then non-enzymatically harvested, washed repeatedly to remove IFNγ, and irradiated to 60 Gy from a ^60Co source to inhibit growth and further upregulate MHC I. […] IFNγ ELISpot was performed as per manufacturer's instructions (BD Biosciences, Cat. 551083). Spots were imaged and quantified on an Immunospot® analyzer (Cellular Technology Limited, Cleveland, Ohio).

Compound	tumor growth following engraftment into syngeneic, immune-competent mice (MC38 cells)	lymphocytes, neutrophils, or other peripheral blood counts [1]	growth inhibition with loss of β2-microglobulin in B16-F10 (B16-F10 cells; B2m CRISPR knockout vs control B16-F10, indisulam pretreatment)	in vivo growth inhibition with NK depletion (B16-F10 cells; B16-F10 treated 1 μM 96 hours, NK cell depletion)	in vivo tumor growth inhibition in Rag2 recipients and with T cell depletion (B16-F10 cells; B16-F10 treated 1 μM 96 hours, anti-CD4 and anti-CD8)	antigen-specific T cell activation by indisulam-treated B16-F10 cells (CD8^+ T cells)
CC(C)Oc1ccc(-c2c[nH]cc2CN(C)CCN)cc1 [MS-023]	durable suppression of tumor growth					
NS(=O)(=O)c1ccc(S(=O)(=O)Nc2cccc3c(Cl)c[nH]c23)cc1 [indisulam]		negligible effects	rescued the growth inhibition	did not rescue cell growth	rescued	triggers antigen-specific T cell activation

From US20230190707A1, “COMPOSITIONS AND METHODS FOR ENHANCING CANCER IMMUNOTHERAPY” (FRED HUTCHINSON CANCER CENTER, priority 2020, published 2023)
